Assay results published in patent US11999987B2, “Bacterial cocultures expressing a bacteriocin system” (Lallemand Hungary Liquidity Management LLC, priority 2020, dated 2024).

Assays:
[1] = test system: Lb. paracasei E3.1 harboring the empty vector; assay: Growth of Lb. paracasei E3.1 (empty vector) in MRS with nisin, OD600; assay type: cell-based, Lactobacillus paracasei; settings: MRS supplemented with 500 ppm of nisin; empty vector strain; FIG. 1
Experimental: (§1) Resulting Lb. paracasei strains (±the nisin resistance construct) were grown in MRS (no nisin) and MRS supplemented with 500 ppm of nisin. The OD600 was monitored. When nisin was absent from the media both strains grew identically, indicating no deleterious effect of NisIEFG expression (FIG. 1).

[2] = test system: Lb. paracasei E3.1 expressing pDW2-P5-nisIEFG; assay: Growth of Lb. paracasei E3.1 expressing the nisin autoimmunity construct in MRS with nisin, OD600; assay type: cell-based, Lactobacillus paracasei; settings: MRS supplemented with 500 ppm of nisin; strain expressing pDW2-P5-nisIEFG; FIG. 1
Experimental: as §1

nisin
growth (OD600) in the presence of nisin [1]: completely inhibited
growth rate (OD600) in the presence of nisin [2]: only a minimal decrease in growth rate
